# ChEMBL document CHEMBL1201862, “PubChem BioAssay data set” (2004)
#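 Five compound concentrations were applied to cells in 96-well plates for 48 hours; endpoints were derived by simple linear interpolation of the resulting dose-response curve. At the GI50, growth is halved.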 The source made the active and inactive calls. No stated cut-off is given here; in the data, active = GI50 up to about 1.1 µM and inactive = higher.
# Experiments:
# Test in all cases: growth of human tumour cells (NCI), 48 h
# [1] = tested on: HOP-18
# [2] = tested on: LOX IMVI
# [3] = tested on: NCI-H23
# [4] = tested on: Malme-3M
# [5] = tested on: SF-539
# [6] = tested on: SNB-78
# [7] = tested on: UACC-62
# [8] = tested on: RPMI-8226
# [9] = tested on: SF-295
# [10] = tested on: HOP-62
# [11] = tested on: SW-620
# [12] = tested on: UACC-257
# [13] = tested on: SNB-75
# [14] = tested on: RXF 631
# [15] = tested on: SF-268
# [16] = tested on: XF498
# [17] = tested on: LXFL 529
# [18] = tested on: UO-31
# [19] = tested on: SK-OV-3
# [20] = tested on: HOP-92
# [21] = tested on: SN12C
# [22] = tested on: HT-29
# [23] = tested on: 786-0
# [24] = tested on: NCI-H460
# [25] = tested on: COLO 205
# [26] = tested on: K562
# [27] = tested on: SK-MEL-5
# [28] = tested on: OVCAR-8
# [29] = tested on: KM-20L2
# [30] = tested on: DMS-114
# [31] = tested on: HCT-15
# [32] = tested on: SNB-19
# [33] = tested on: NCI-H522
# [34] = tested on: KM12
# [35] = tested on: EKVX
# [36] = tested on: CAKI-1
# [37] = tested on: M14
# [38] = tested on: OVCAR-5
# [39] = tested on: A498
# [40] = tested on: TK-10
# [41] = tested on: OVCAR-3
# [42] = tested on: SK-MEL-28
# [43] = tested on: SR
# [44] = tested on: DLD-1
# [45] = tested on: HL-60
# [46] = tested on: SK-MEL-2
# [47] = tested on: ACHN
# [48] = tested on: U-251
# [49] = tested on: DMS-273
# [50] = tested on: MOLT-4
# [51] = tested on: NCI-H226
# [52] = tested on: OVCAR-4
# [53] = tested on: RXF 393
# [54] = tested on: IGROV-1
# [55] = tested on: CCRF-CEM
# [56] = tested on: M19-MEL
compound,measurement,setting,value
O=C1NC2OCC(O)C(O1)C2O (stereo unspecified),GI50,[1],> 100 µM (inactive)
same,GI50,[2],> 100 µM (inactive)
same,GI50,[3],> 100 µM (inactive)
same,GI50,[4],> 100 µM (inactive)
same,GI50,[5],> 100 µM (inactive)
same,GI50,[6],> 100 µM (inactive)
same,GI50,[7],> 100 µM (inactive)
same,GI50,[8],> 100 µM (inactive)
same,GI50,[9],> 100 µM (inactive)
same,GI50,[10],> 100 µM (inactive)
same,GI50,[11],> 100 µM (inactive)
same,GI50,[12],> 100 µM (inactive)
same,GI50,[13],> 100 µM (inactive)
same,GI50,[14],> 100 µM (inactive)
same,GI50,[15],> 100 µM (inactive)
same,GI50,[16],> 100 µM (inactive)
same,GI50,[17],> 100 µM (inactive)
same,GI50,[18],> 100 µM (inactive)
same,GI50,[19],> 100 µM (inactive)
same,GI50,[20],> 100 µM (inactive)
same,GI50,[21],> 100 µM (inactive)
same,GI50,[22],> 100 µM (inactive)
same,GI50,[23],> 100 µM (inactive)
same,GI50,[24],> 100 µM (inactive)
same,GI50,[25],> 100 µM (inactive)
same,GI50,[26],> 100 µM (inactive)
same,GI50,[27],> 100 µM (inactive)
same,GI50,[28],> 100 µM (inactive)
same,GI50,[29],> 100 µM (inactive)
same,GI50,[30],> 100 µM (inactive)
same,GI50,[31],> 100 µM
same,GI50,[32],> 100 µM (inactive)
same,GI50,[33],> 100 µM (inactive)
same,GI50,[34],> 100 µM (inactive)
same,GI50,[35],> 100 µM (inactive)
same,GI50,[36],> 100 µM (inactive)
same,GI50,[37],> 100 µM (inactive)
same,GI50,[38],> 100 µM (inactive)
same,GI50,[39],> 100 µM (inactive)
same,GI50,[40],> 100 µM (inactive)
same,GI50,[41],> 100 µM (inactive)
same,GI50,[42],> 100 µM (inactive)
same,GI50,[43],> 100 µM (inactive)
same,GI50,[44],> 100 µM (inactive)
same,GI50,[45],> 100 µM (inactive)
same,GI50,[46],> 100 µM (inactive)
same,GI50,[47],> 100 µM (inactive)
same,GI50,[48],> 100 µM (inactive)
same,GI50,[49],> 100 µM (inactive)
same,GI50,[50],> 100 µM (inactive)
same,GI50,[51],> 100 µM (inactive)
same,GI50,[52],> 100 µM (inactive)
same,GI50,[53],> 100 µM (inactive)
same,GI50,[54],> 100 µM (inactive)
same,GI50,[55],> 100 µM (inactive)
same,GI50,[56],> 100 µM (inactive)
